The text below walks through data of US20250145625A1, “PYRAZOLOPYRIMIDINE DERIVATIVE AND ANTICANCER PHARMACEUTICAL COMPOSITION CONTAINING SAME AS ACTIVE INGREDIENT” (KOREA RESEARCH INSTITUTE OF CHEMICAL TECHNOLOGY, priority 2021, published 2025).

For experiment [1], the target named is recombinant human TTK protein (Homo sapiens (Human), UniProt P33981). In words: Evaluation of TTK activity inhibitory ability (scintillation counting).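 Further: reaction stopped with 0.5% phosphoric acid, spotted on P30 filter, TTK activity counted by scintillation, uninhibited no-compound wells taken as 100% control.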 The format is biochemical.
Chain of recombinant human TTK protein (P33981 whole entry): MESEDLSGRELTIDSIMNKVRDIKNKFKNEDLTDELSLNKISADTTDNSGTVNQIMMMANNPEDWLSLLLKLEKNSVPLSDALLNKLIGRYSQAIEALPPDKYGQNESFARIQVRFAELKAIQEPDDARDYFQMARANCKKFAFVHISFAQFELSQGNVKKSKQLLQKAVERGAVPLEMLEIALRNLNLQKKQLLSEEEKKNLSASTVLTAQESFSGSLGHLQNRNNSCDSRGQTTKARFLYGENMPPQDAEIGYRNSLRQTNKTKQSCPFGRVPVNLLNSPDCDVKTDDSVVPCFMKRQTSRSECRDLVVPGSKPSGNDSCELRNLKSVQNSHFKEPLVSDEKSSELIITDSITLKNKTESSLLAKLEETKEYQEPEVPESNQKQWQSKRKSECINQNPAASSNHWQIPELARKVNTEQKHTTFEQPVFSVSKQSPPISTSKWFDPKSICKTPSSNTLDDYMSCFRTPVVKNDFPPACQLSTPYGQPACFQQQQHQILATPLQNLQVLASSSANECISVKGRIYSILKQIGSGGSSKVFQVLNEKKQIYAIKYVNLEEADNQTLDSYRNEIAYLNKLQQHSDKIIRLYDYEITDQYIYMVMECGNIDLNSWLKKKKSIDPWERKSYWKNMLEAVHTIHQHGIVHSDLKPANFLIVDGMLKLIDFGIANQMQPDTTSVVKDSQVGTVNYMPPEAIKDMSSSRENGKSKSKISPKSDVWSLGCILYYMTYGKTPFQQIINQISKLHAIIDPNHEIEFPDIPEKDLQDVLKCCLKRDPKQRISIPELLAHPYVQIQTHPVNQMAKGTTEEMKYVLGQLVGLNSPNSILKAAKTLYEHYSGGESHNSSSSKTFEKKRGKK
Method: To determine the ability of a compound represented by Chemical Formula 1 according to the present invention to inhibit TTK activity, the following experiment was conducted.
After that, the reaction was terminated by adding phosphoric acid to a concentration of 0.5%, and 10 of the reaction solution was dropped onto a P30 filter. […] The activity of TTK was measured through scintillation counting. The activity value from the group with no compound was set as 100% of control, and the degree of TTK inhibition by the compound was calculated.
The target in the next experiment is ALK(h) (Homo sapiens (Human), UniProt Q9UM73). Put plainly: Kinase activity inhibitory ability (panel). The format is biochemical. The following applies: compound at 500 nM.
The target of a further experiment is IR(h), activated (Homo sapiens (Human), UniProt P06213). In words: Kinase activity inhibitory ability (panel). The format is biochemical. The following applies: compound at 500 nM.
Chain of IR(h), activated (P06213 28-1382): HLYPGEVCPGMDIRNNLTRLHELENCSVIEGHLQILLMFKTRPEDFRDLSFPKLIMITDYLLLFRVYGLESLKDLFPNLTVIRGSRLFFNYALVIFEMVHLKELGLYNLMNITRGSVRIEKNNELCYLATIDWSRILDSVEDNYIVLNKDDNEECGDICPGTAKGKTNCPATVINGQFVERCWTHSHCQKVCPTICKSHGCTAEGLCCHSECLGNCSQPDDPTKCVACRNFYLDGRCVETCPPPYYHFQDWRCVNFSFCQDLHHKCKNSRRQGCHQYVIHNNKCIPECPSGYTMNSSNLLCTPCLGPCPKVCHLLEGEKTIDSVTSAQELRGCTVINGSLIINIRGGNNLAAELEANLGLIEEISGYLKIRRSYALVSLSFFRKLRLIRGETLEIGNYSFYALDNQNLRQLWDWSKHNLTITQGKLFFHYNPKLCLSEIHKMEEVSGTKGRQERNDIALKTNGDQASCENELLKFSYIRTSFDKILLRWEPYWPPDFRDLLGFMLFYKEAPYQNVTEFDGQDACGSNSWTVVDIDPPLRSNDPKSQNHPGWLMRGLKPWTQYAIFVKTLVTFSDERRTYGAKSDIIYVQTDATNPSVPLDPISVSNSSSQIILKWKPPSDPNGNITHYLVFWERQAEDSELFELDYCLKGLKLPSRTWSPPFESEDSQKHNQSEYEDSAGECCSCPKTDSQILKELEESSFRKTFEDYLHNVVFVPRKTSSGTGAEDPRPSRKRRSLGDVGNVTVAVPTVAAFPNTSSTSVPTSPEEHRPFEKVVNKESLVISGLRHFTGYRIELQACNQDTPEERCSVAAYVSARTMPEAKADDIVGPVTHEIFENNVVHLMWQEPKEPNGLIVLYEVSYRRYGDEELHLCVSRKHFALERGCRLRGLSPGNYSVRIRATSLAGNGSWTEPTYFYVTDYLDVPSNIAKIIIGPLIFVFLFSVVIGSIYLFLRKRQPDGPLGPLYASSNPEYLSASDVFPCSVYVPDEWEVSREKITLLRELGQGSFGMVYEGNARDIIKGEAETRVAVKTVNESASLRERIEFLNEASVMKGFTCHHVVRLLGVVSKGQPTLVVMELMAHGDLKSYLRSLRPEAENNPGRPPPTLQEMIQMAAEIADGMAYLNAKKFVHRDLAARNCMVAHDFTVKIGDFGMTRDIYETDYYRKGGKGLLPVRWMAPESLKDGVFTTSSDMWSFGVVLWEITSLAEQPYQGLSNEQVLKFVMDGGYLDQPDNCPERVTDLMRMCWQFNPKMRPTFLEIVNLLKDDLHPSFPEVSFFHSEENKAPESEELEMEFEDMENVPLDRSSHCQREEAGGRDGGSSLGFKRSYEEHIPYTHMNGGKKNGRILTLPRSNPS
In a further experiment the target is IRR(h) (Homo sapiens (Human), UniProt P14616). Put plainly: Kinase activity inhibitory ability (panel). The following applies: compound at 500 nM. The format is biochemical.
Chain of IRR(h) (P14616 27-1297): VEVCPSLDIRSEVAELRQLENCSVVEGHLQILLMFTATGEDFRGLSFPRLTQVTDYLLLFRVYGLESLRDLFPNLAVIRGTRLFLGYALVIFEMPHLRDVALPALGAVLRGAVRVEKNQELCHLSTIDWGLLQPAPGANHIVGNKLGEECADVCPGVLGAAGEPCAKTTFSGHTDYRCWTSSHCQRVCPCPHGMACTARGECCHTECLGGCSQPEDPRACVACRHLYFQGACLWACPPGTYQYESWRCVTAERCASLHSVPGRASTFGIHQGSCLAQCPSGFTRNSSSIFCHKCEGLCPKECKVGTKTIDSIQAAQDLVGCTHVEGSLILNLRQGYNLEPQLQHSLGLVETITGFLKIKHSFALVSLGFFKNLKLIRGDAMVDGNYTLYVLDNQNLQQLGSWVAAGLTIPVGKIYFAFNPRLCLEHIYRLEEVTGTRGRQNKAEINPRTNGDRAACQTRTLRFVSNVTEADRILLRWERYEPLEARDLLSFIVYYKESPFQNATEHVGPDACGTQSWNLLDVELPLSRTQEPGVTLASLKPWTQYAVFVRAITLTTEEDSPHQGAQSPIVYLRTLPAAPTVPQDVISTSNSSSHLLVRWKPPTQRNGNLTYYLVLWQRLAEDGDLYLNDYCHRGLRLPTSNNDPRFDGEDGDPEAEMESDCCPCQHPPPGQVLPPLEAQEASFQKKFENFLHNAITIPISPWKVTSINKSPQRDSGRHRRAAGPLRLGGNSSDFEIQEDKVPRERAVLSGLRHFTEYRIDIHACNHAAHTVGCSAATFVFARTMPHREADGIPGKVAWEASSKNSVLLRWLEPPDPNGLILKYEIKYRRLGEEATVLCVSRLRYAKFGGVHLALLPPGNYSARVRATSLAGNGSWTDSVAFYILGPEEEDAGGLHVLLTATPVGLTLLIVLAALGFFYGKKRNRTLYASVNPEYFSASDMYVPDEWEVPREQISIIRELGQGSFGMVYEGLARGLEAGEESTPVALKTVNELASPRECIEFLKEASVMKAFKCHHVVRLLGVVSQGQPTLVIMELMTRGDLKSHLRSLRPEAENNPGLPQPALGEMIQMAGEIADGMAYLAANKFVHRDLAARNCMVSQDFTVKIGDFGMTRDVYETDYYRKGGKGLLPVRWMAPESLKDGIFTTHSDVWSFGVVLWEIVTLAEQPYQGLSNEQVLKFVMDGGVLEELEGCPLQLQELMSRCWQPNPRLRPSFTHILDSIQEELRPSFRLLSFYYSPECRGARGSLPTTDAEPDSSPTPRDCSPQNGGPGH
A further experiment deals with LTK(h) (Homo sapiens (Human), UniProt P29376). Put plainly: Kinase activity inhibitory ability (panel). The format is biochemical. The following applies: compound at 500 nM.
Chain of LTK(h) (P29376 17-864): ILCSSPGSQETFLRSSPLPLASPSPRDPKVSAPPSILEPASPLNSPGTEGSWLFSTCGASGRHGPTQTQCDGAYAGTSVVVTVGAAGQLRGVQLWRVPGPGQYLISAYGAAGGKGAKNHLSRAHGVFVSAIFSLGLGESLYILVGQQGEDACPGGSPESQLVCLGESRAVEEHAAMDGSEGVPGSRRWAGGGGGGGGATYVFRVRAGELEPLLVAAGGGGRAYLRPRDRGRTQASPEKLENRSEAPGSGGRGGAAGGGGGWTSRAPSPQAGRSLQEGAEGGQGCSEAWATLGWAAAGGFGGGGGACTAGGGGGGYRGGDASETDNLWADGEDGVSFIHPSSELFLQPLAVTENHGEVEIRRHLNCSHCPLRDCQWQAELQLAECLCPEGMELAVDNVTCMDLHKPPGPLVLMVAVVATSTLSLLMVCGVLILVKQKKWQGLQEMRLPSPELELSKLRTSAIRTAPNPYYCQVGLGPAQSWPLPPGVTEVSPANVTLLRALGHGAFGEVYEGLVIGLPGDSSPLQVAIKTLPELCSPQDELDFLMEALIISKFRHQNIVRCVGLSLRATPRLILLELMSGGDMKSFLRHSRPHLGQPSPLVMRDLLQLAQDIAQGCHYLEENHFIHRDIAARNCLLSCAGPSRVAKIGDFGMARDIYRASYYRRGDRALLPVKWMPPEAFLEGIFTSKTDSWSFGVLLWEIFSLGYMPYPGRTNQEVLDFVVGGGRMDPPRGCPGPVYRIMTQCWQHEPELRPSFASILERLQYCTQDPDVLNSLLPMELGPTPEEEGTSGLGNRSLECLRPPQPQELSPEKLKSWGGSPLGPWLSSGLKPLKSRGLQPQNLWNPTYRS
The next experiment concerns the target TTK(h) (Homo sapiens (Human), UniProt P33981). Put plainly: Kinase activity inhibitory ability (panel). The format is biochemical.
Experiment [2] concerns MDA-MB-231 triple negative breast cancer cell line. In words: Cytotoxicity in TTK-expressed MDA-MB-231 cells. The format is cell-based. The following applies: Homo sapiens, MDA-MB-231, 120 h, 5 days. On the procedure: To determine the cytotoxicity of a compound represented by Chemical Formula 1 according to the present invention to MDA-MB-231 cells, the following test was conducted.
MDA-MB-231 triple negative breast cancer cell line purchased from ATCC was inoculated into each well of a 96-well plate at a volume of 90 μL containing 2,000 cells. Thereafter, an example compound of the present invention was added to respective wells at concentrations of 10 μM, 3 μM, 1 μM, 0.3 μM, 0.1 μM, and 0 μM, and the cells were cultured in a cell incubator at 37° C. for 5 days. Five days later, 10 μL of Cyto X solution (manufacturer: LPS Solution) was added to each of the wells, and the absorbance was measured at 450 nm using an Epoch microplate spectrophotometer (manufacturer: BioTek Instruments Inc.) according to the product's user guide. For cytotoxicity, the IC50 value for cytotoxicity of each compound was calculated by quantifying the number of cells using the measured value.

Experiment [3] concerns HCT116 colon cancer cell line. Put plainly: Cytotoxicity in TTK-expressed HCT116 cells. The format is cell-based. The following applies: Homo sapiens, HCT-116, 120 h, 5 days. On the procedure: To determine the cytotoxicity of a compound represented by Chemical Formula 1 according to the present invention to HCT116 cells, the following test was conducted.
HCT116 colon cancer cell line purchased from ATCC was inoculated into each well of a 96-well plate at a volume of 90 μL containing 2,000 cells. Thereafter, an example compound of the present invention was added to respective wells at concentrations of […], 3 μM, 1 μM, 0.3 μM, 0.1 μM, and 0 μM, and the cells were cultured in a cell incubator at 37° C. for 5 days. After 5 days, the number of cells was measured by CCK8 test method, and the cytotoxicity was determined by calculating the IC50 value for cytotoxicity of each compound.

The subject of experiment [4] is MDA-MB-231 tumor in nude mice. Put plainly: Drug efficacy on nude mice employing MDA-MB-231. The format is in vivo. The following applies: MDA-MB-231, oral 6 mg/kg daily for 4 weeks. As to the method: 5-Week-old female nude mice were subcutaneously injected with 5×10^6 MDA-MB-231 cells into the flank. When the tumor volume reached approximately 50 mm^3, the mice were divided into groups, each containing 5 animals, which were than orally administered a drug. The dosage of the drug was 6 mg/kg and administered daily for 4 weeks.

The test system of experiment [5] is MDA-MB-231 triple negative breast cancer cell line. In words: Cell cycle distribution of co-treatment with paclitaxel in MDA-MB-231 cells. The format is cell-based. The following applies: co-treated with 0.001 μM paclitaxel. As to the method:
To determine the change in cell cycle distribution when a compound represented by Chemical Formula 1 according to the present invention and paclitaxel were co-applied to MDA-MB-231 cells, the following test was conducted.
MDA-MB-231 triple negative breast cancer cell line purchased from ATCC was inoculated into each well of a 6-well plate at 100,000 cells. Thereafter, paclitaxel was added at concentrations of 0 μM and 0.001 μM and an example compound of the present invention was added at concentrations of 0 μM, 0.03 μM, or 0.1 μM, and the cells were cultured in a cell incubator at 37° C. for 2 days. After 2 days, the cells were fixed with 70% ethanol, and added and into 200 μL of Muse Cell Cycle reagent in a light-shielded state and cultured for 30 minutes. Then, the cell cycle distribution was analyzed using a Muse Cell Analyzer (manufacturer: Merck, Millipore), and the results are shown in FIG. 6.

Each structure is given as a SMILES string. Where two headings read alike, the source gives them in different places.

Chain of TTK(h) (P33981 whole entry): as the sequence (P33981 whole entry) above

On to `COc1ccc(Cn2nc(-c3cn[nH]c3)c3c(NC4CCCCC4)nc(Nc4ccc(N5CCOCC5)cc4OC)nc32)cc1` [Compound 8-8, N^4-cyclohexyl-N^6-(2-methoxy-4-morpholinophenyl)-1-(4-methoxybenzyl)-3-(1H-pyrazol-4-yl)-1H-pyrazolo[3,4-d]pyrimidine-4,6-diamine], for which the IC50 was 30 to 100 nM in experiment [1], less than 150 nM in experiment [2] and less than 150 nM in experiment [3]. In addition, the activity at 0.5 µM on ALK(h) is 2%; at IR(h), activated it was 8%; on IRR(h) it was 7%; at LTK(h) it was 2%; on TTK(h) (TTK(h), compound at 500 nM) it was -7%. The inhibition at 0.5 µM against ALK(h) was greater than 90%; against IR(h), activated, greater than 90%; at IRR(h), greater than 90%; at LTK(h), greater than 90%; at TTK(h) (TTK(h), compound at 500 nM), greater than 90%. Besides, the “TTK activity inhibition (in words)” value at TTK(h) (500 nM) was “completely inhibited TTK activity”.
For the compound `Cc1cc(-c2cnn3c(NC[C@H]4C[C@@](C)(O)C4)cc(Oc4cccnc4)nc23)ccc1C(=O)NC1CC1` [Comparative Example 1, CFI-402257, reference compound], the IC50 in experiment [2] and in [3] was less than 150 nM throughout. In experiment [4], the “tumor volume over time” value is “reduced”. For the same compound, in experiment [5], the “change in cell distribution on co-treatment” value was “enhanced changes in cell distribution”.
Consider `COc1cc(N2CCOCC2)ccc1Nc1nc(NC2CCOCC2)c2c(-c3cn(C)nn3)n[nH]c2n1` [Compound 21-3, N^6-(2-methoxy-4-morpholinophenyl)-3-(1-methyl-1H-1,2,3-triazol-4-yl)-N^4-(tetrahydro-2H-pyran-4-yl)-1H-pyrazolo[3,4-d]pyrimidine-4,6-diamine], for which the IC50 in experiment [1] (TTK inhibitory activity, read-out: IC50) was 30 to 100 nM; in [2] it was 150 to 500 nM; in [3] it was less than 150 nM.

In general, IC50 refers to the concentration at which inhibition is half-maximal. A word on the inhibition: it is the relative decrease from the control value, in per cent. A lower inhibition goes with little suppression.
